SMILES strings stand for the structures.

In this test the target is T1, polycystin-2 (Homo sapiens, UniProt Q13563, C331S/C344S).
T1 construct: expressed in transfected cells
T1 sequence (Q13563 1-968 C331S/C344S): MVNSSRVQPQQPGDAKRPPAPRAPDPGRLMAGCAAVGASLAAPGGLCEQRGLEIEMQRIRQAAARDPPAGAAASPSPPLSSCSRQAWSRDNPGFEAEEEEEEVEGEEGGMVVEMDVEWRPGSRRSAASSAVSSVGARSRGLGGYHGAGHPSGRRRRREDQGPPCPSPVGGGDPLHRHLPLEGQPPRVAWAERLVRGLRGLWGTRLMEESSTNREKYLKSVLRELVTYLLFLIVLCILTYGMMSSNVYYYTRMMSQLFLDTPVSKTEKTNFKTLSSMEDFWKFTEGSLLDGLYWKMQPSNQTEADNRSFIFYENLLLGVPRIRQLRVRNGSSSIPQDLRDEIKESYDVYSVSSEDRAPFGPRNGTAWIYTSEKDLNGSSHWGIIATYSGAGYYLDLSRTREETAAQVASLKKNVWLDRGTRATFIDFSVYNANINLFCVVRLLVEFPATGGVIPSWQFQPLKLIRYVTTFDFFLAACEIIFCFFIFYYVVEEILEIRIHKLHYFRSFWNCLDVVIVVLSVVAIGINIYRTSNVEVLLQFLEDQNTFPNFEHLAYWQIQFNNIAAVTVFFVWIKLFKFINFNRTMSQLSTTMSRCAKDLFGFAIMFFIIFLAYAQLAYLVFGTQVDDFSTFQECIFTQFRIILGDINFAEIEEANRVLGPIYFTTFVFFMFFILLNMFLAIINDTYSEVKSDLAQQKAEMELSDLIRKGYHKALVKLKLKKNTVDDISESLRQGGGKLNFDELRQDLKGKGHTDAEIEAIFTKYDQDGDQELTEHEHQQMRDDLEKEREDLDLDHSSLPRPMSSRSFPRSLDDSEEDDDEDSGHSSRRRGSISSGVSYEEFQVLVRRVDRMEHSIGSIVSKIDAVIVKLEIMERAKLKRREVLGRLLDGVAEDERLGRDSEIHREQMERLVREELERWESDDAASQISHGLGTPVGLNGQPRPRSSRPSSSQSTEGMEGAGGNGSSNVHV
The class given is cell-based. Conditions: C331S:C334S double mutant.

Turning to `[Gd]` [gadolinium], the “Effect on C331S:C334S channel cilia current” value was “retaining its sensitivity to pore block”.
